Measurements taken from paper PMC8151276, “An Integrated Approach toward NanoBRET Tracers for Analysis of GPCR Ligand Engagement” (Molecules, 2021).

Target: T1, HTR1A (Homo sapiens, UniProt P08908)
T1 construct: purchased Promega (in-house HiBiT-GPCR construct library, NanoBRET)
T1 sequence (P08908 1-422): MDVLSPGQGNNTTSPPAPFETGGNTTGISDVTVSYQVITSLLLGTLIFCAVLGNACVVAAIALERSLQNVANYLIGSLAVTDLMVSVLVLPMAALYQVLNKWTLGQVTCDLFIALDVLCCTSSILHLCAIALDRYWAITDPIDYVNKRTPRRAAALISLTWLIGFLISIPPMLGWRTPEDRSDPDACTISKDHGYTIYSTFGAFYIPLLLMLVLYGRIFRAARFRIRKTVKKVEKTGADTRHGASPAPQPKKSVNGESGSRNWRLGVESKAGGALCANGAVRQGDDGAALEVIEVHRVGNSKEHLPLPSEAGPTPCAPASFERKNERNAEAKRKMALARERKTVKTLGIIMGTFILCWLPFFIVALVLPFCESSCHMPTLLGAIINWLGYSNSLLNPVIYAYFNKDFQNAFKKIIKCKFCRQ
Test: NanoBRET screen HiBiT-HTR1A in HEK293
Format: binding
Description: Each tracer candidate was screened across the entire library of HiBiT-GPCR constructs using NanoBRET as the detection modality. As depicted in Figure 4A, the specificity of interactions was evaluated through decrease in BRET due to competitive displacement of a bound tracer by excess parental compound. Each tracer was analyzed for binding to each HiBiT-GPCR fusion in the absence and in the presence of competing parental compound. Briefly, HEK293 cells were transfected with HiBiT-GPCR constructs diluted into promoterless DNA to reduce expression and maximize translocation to the cell surface. Each tracer candidate was then screened at concentrations of 1 μM and 0.1 μM across cells expressing these fusions. Cells were treated for 1.5 h with tracer either alone or in the presence of 20 μM competing parental compound (i.e., control). BRET was measured upon addition of purified LgBiT and subsequent complementation with HiBiT genetically fused to a GPCR. The specificity of interactions was assessed through a decrease in BRET signal due to competitive displacement of the bound tracer. To further gauge the robustness of these interactions, the fold response over the control (i.e., BRETtracer/BRETcontrol) was calculated. We chose a 1.5-fold response, which translates to ≥7-fold signal over noise as the minimal threshold required to score an interaction as positive.
HiBiT-GPCR DNA constructs were diluted in 10 mM Tris pH 8 to a final concentration of 0.01 μg/μL, arrayed in 96-well plates and stored at −20 °C. For transfection, HEK293 cells were suspended in Opti-MEM (without phenol red) supplemented with 2% fetal bovine serum (Seradigm) and 100 units/mL penicillin–streptomycin (Gibco) at a final concentration of 220,000 cells/mL and dispensed into white 96-well plates at 90 μL/well. Subsequent transfections and screens were carried using an Agilent Bravo Automated Liquid Handling Platform. First, the 96-well HiBiT DNA arrays were diluted 25-fold in Opti-MEM (without serum or phenol red) to a final concentration of 0.0004 μg/μL and 20 μL of the diluted DNAs were transferred into new 96-well plates. Next, promoterless carrier DNA (1 μg/μL) was diluted 25-fold (0.04 μg/μL) and then dispensed into the diluted arrays at 20 μL/well. Following brief mixing, Viafect transfection reagent (Promega) diluted 16-fold into Opti-MEM was dispensed into the plates at 40 μL/well. After mixing by pipetting, plates were incubated for 10 min on the pipetting station deck. The DNA-transfection reagent complexes were then added to plates containing cells. To facilitate the screen, 10 μL of DNA-transfection reagent complexes were added in duplicates to the top 4 and bottom 4 rows, resulting in two identical 48-well arrays per plate. Plates with transfected cells were incubated for 18–20 h at 37 °C/5% CO2. A screen of each tracer across the entire library using two different concentrations requires duplicate plates of transfected cells. Depending on the number of tracers being screened, transfections can be scaled up using the same ratios. The next day, for each tracer, four 20× screening solutions in tracer dilution buffer (Promega) were prepared: two duplicates at final concentration of 20 μM and two duplicates at a final concentration of 2 μM. […] The four resulting solutions were diluted 4-fold in Opti-MEM without serum or phenol red to generate 5× solutions (5 µM and 0.5 µM tracer +/− 100 μM competing compound). To screen the library, a BioTek MultiFlo FX liquid dispenser was used to dispense 22.5 µL of tracer solution to the top 4 rows and 22.5 µL tracer + competing compound solution to the 4 bottom rows. Plates were briefly mixed on an orbital shaker and incubated for 1.5 h at room temperature. […] Plates were briefly mixed on an orbital shaker and incubated for 15 min to allow complementation.

SMILES	NanoBRET Fold Response (HTR1A, tracer 0.1μM)	NanoBRET Fold Response (HTR1A, tracer 1μM)	further results
CCOC(=O)c1cc(C#N)c(N2CCC(C(=O)NS(=O)(=O)Cc3ccccc3/C=C/C(=O)NCCNC(=O)CCc3ccc4n3[B-](F)(F)[N+]3=C(c5ccc[nH]5)C=CC3=C4)CC2)nc1C [AZD1283-1-NB590]			NanoBRET Fold Response (HTR1A, 0.1μM): 0.97; NanoBRET Fold Response (HTR1A, 1μM): 1.04
N#CN/C(=N\CCNC(=O)c1ccc(N)cc1)NCCCOc1cccc(CN2CCCCC2)c1 [Aminopotentidine (unmodified)]			NanoBRET Fold Response (HTR1A, other tracers/Aminopotentidine (unmodified), 0.1μM): 1.28; NanoBRET Fold Response (HTR1A, other tracers/Aminopotentidine (unmodified), 1μM): 1.69
N#CN=C(NCCCOc1cccc(CN2CCCCC2)c1)NCCNC(=O)CCOCCOCCOCCOCCNC(=O)CCc1ccc2n1[B-](F)(F)[N+]1=C(c3ccc[nH]3)C=CC1=C2 [Aminopotentidine-2-NB590]	1.04	0.98	
CN(C)CCC=C1c2ccccc2CCc2ccc(C(=O)NCCNC(=O)CCOCCOCCOCCOCCNC(=O)CCc3ccc4n3[B-](F)(F)[N+]3=C(c5ccc[nH]5)C=CC3=C4)cc21 [Amitriptyline-a-2-NB590]			NanoBRET Fold Response (tracer at 0.1μM): 1.33; NanoBRET Fold Response (tracer at 1μM): 1.04
CN(C)CCC=C1c2ccccc2CCc2ccc(C(=O)NCCNC(=O)CCOCCOCCOCCOCCNC(=O)CCc3ccc4n3[B-](F)(F)[N+]3=C(c5ccc[nH]5)C=CC3=C4)cc21 [Amitriptyline-b-2-NB590]			NanoBRET Fold Response (tracer at 0.1μM, listed as amitriptyline-b-2-NB590): 1.19; NanoBRET Fold Response (tracer at 1μM, listed as amitriptyline-b-2-NB590): 1.02
CN(CCC=C1c2ccccc2CCc2ccccc21)C(=O)CCOCCOCCOCCOCCNC(=O)CCc1ccc2n1[B-](F)(F)[N+]1=C(c3ccc[nH]3)C=CC1=C2 [Amitriptyline-e-2-NB590]			NanoBRET Fold Response (tracer at 1μM): 0.99
COc1ccc2c(n1)c(CCNC(C)=O)cn2CCNC(=O)CCc1ccc2n1[B-](F)(F)[N+]1=C(c3ccc[nH]3)C=CC1=C2 [Azamelatonin-1-NB590]			NanoBRET Fold Response (0.1μM tracer): 1.02; NanoBRET Fold Response (1μM tracer): 1.02
COc1ccc2[nH]c(-c3ccc(CNC(=O)CCOCCOCCOCCOCCNC(=O)CCc4ccc5n4[B-](F)(F)[N+]4=C(c6ccc[nH]6)C=CC4=C5)cc3)c(CCNC(C)=O)c2n1 [AzomelatoninICO9-2-NB590]			NanoBRET Fold Response (0.1μM tracer): 0.95; NanoBRET Fold Response (1μM tracer): 1.15
O=C(CCOCCOCCOCCOCCNC(=O)CCc1ccc2n1[B-](F)(F)[N+]1=C(c3ccc[nH]3)C=CC1=C2)NCCCN1CCN(C2=Nc3cc(Cl)ccc3Nc3ccccc32)CC1 [Clozapine-a-2-NB590]			NanoBRET Fold Response (HTR1A, 0.1μM tracer): 1.16; NanoBRET Fold Response (HTR1A, 1μM tracer): 0.98
CN1CCN(C2=Nc3cc(Cl)ccc3Nc3ccc(CNC(=O)CCOCCOCCOCCOCCNC(=O)CCc4ccc5n4[B-](F)(F)[N+]4=C(c6ccc[nH]6)C=CC4=C5)cc32)CC1 [Clozapine-b-2-NB590]			NanoBRET Fold Response (HTR1A, 0.1μM tracer): 0.98; NanoBRET Fold Response (HTR1A, 1μM tracer): 1.21
CN1CCN(C2=Nc3cc(Cl)ccc3N(CC(=O)NCCOCCOCCOCCOCCNC(=O)CCc3ccc4n3[B-](F)(F)[N+]3=C(c5ccc[nH]5)C=CC3=C4)c3ccccc32)CC1 [Clozapine-c-2-NB590]			NanoBRET Fold Response (HTR1A, 1μM tracer): 1.12
O=C(CCOCCOCCOCCOCCNC(=O)CCc1ccc2n1[B-](F)(F)[N+]1=C(c3ccc[nH]3)C=CC1=C2)NCCCN1CCN(C2=Nc3ccccc3Oc3ccc(Cl)cc32)CC1 [Loxapine-a-2-NB590]	1.15	1.19	
COc1ccccc1N1CCN(CCCCN2C(=O)c3ccc(CNC(=O)CCOCCOCCOCCOCCNC(=O)CCc4ccc5n4[B-](F)(F)[N+]4=C(c6ccc[nH]6)C=CC4=C5)cc3C2=O)CC1 [NAN-190-2-NB590]	2.15	1.76	
COc1ccccc1N1CCN(CCCCN2C(=O)c3ccc(CNC(=O)CCOCCNC(=O)c4ccc(CNC(=O)CCc5ccc6n5[B-](F)(F)[N+]5=C(c7ccc[nH]7)C=CC5=C6)cc4)cc3C2=O)CC1 [NAN-190-3-NB590]		1.70	
O=C(CCc1ccc2n1[B-](F)(F)[N+]1=C(c3ccc[nH]3)C=CC1=C2)NCc1ccc(C(=O)NCCOCCC(=O)N[C@@H]2CC[C@@]3(O)[C@H]4Cc5ccc(O)c6c5[C@@]3(CCN4CC3CC3)[C@H]2O6)cc1 [Naltrexone-3-NB590]	0.94	1.03	
Cc1cc2c(s1)Nc1ccccc1N=C2N1CCN(CCCNC(=O)CCOCCOCCOCCOCCNC(=O)CCc2ccc3n2[B-](F)(F)[N+]2=C(c4ccc[nH]4)C=CC2=C3)CC1 [Olanzapine-a-2-NB590]	0.99	1.06	
O=C(CCc1ccc2n1[B-](F)(F)[N+]1=C(c3ccc[nH]3)C=CC1=C2)NCc1ccc(C(=O)NCCOCCOCCNCC(O)COc2cccc3ccccc23)cc1 (centres unmarked) [Propranolol-3-NB590]			NanoBRET Fold Response (HTR1A, 0.1μM): 1.38; NanoBRET Fold Response (HTR1A, 1μM): 1.39
O=C(CCc1ccc2n1[B-](F)(F)[N+]1=C(c3ccc[nH]3)C=CC1=C2)NCCOCCOCCNC(=O)OCCOCCN1CCN(C2=Nc3ccccc3Sc3ccccc32)CC1 [Quetiapine-a-2-NB590]	1.09	1.04	
Cc1nc2n(c(=O)c1CCN1CCC(c3noc4cc(F)ccc34)CC1)CCCC2OC(=O)NCCOCCOCCOCCOCCNC(=O)CCc1ccc2n1[B-](F)(F)[N+]1=C(c3ccc[nH]3)C=CC1=C2 (centres unmarked) [Risperidone-2-NB590]	1.24	1.15	
CC(C)N(CC[C@H](c1ccccc1)c1cc(CCNC(=O)CCOCCOCCOCCOCCNC(=O)CCc2ccc3n2[B-](F)(F)[N+]2=C(c4ccc[nH]4)C=CC2=C3)ccc1O)C(C)C [Tolterodine-2-NB590]	1.14	1.06	
CC(C)N(CC[C@H](c1ccccc1)c1cc(CCNC(=O)c2ccc(CNC(=O)CCc3ccc4n3[B-](F)(F)[N+]3=C(c5ccc[nH]5)C=CC3=C4)cc2)ccc1O)C(C)C [Tolterodine-BZ-NB590]	1.03	1.12	
CCCn1c(=O)c2[nH]c(-c3ccc(OCC(=O)NCCNC(=O)CCOCCNC(=O)c4ccc(CNC(=O)CCc5ccc6n5[B-](F)(F)[N+]5=C(c7ccc[nH]7)C=CC5=C6)cc4)cc3)nc2n(CCC)c1=O [XAC-3-NB590]	1.01	0.89	
